Measured values from patent US20220259202A1, “1-(4-(AMINOMETHYL)BENZYL)-2-BUTYL-2H-PYRAZOLO[3,4-C]QUINOLIN-4-AMINE DERIVATIVES AND RELATED COMPOUNDS AS TOLL-LIKE RECEPTOR (TLR) 7/8 AGONISTS, AS WELL AS ANTIBODY DRUG CONJUGATES THEREOF FOR USE IN CANCER THERAPY AND DIAGNOSIS” (SUTRO BIOPHARMA, INC., priority 2019, published 2022).
pEC50: −log10 of the molar value.

Legend:
human TLR7 = biological target: T1, human TLR7 (Homo sapiens, UniProt Q9NYK1); test: HEK293 SEAP reporter assay, human TLR7 (Biological Example 1); format: cell-based; settings: HEK293-humanTLR7 reporter cells, 4 hrs; read-out: hTLR7 EC50
T1 construct: host or cells: HEK293
T1 sequence (Q9NYK1 27-1049): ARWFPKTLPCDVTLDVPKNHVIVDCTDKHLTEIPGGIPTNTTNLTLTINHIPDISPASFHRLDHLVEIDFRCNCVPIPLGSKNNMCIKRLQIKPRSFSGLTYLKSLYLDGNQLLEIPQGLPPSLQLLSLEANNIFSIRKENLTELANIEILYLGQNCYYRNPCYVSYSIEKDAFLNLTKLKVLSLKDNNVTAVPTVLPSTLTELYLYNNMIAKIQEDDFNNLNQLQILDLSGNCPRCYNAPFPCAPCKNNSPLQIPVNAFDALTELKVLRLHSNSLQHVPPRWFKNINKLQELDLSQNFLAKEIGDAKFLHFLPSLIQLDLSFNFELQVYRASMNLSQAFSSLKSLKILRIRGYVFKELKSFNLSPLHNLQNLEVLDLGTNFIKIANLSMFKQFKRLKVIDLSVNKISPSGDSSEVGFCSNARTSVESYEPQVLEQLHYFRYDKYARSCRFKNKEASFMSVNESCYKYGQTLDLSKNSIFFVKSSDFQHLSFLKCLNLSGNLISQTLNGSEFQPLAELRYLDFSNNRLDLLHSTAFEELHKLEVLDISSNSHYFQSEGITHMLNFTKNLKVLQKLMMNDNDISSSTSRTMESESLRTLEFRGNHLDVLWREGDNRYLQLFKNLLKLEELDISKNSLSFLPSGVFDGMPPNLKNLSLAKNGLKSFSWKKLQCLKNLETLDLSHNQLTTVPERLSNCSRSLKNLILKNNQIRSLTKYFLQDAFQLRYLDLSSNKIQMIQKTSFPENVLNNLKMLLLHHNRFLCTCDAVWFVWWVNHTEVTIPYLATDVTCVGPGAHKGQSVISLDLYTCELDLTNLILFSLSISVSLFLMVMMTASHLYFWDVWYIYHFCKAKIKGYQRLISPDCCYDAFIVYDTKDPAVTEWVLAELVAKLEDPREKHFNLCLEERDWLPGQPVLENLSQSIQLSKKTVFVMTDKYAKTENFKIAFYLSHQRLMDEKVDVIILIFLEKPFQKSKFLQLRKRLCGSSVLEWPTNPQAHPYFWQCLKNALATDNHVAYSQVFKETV
Method: In this example, the activity of the TLR7 agonists to activate human TLR7, hTLR7 (or human TLR8, hTLR8, or mouse TLR7, mTLR7) pathway was evaluated on HEK293 reporter cells transfected with human TLR7 (or mouse TLR7 or human TLR8) and an inducible SEAP (secreted embryonic alkaline phosphatase) reporter gene. The SEAP reporter gene is placed under the control of the IFN-β minimal promoter fused to five NF-κB and AP-1-binding sites. Stimulation with a TLR7 agonist activates NF-KB and AP-1 which induces the production of SEAP. Levels of SEAP was determined with HEK-Blue Detection medium.
HEK293-humanTLR7, HEK293-mouseTLR7 and HEK293-humanTLR8 reporter cell lines were purchased from Invivogen and cell lines were maintained in manufacture recommended culture medium with required supplemental antibiotics. On the day of assay, the cells were harvested with Accutase and counted by the Vi-CELL Cell Viability Analyzers. Cells were re-suspended in HEK blue detection medium and a total of 10000 cells were seeded in each well of a 384-well flat bottom plate. Serial dilutions of TLR7 agonists free drugs (1:3 serial dilution starting from 5 μM) was added into treatment wells. Assay plates were cultured at 37° C. in a CO2 incubator for […]. HEK-Blue™ Detection medium changes to a purple/blue color in the presence of secreted SEAP, which can be detected by spectrophotometry at 620-655 nm. […]

human and mouse TLRs = test: HEK293 SEAP reporter panel of human and mouse TLRs, specificity; format: cell-based; settings: 16 hrs
Description: In this example, the activity of the Compound 1 to stimulate different human and mouse TLR pathways was investigated on HEK293 cells transfected with inducible SEAP (secreted embryonic alkaline phosphatase) reporter genes and also expressing different human TLRs (TLR2, TLR3, TLR4, TLR5, TLR7, TLR8, TLRS) or mouse TLRs (TLR2, TLR3, TLR4, TLR5, TLR7, TLR8, TLR13). Compound A
HEK293 reporter cell lines were purchased from Invivogen and cell lines were maintained in manufacture recommended culture medium with required supplemental antibiotics. On the day of assay, the cells were harvested with Accutase and counted by the Vi-CELL Cell Viability Analyzers. Cells were re-suspended in HEK blue detection medium and a total of 10000 cells were seeded in each well of a 384-well flat bottom plate. […] Assay plates were cultured at 37° C. in a CO2 incubator for 16 hrs. HEK-Blue™ Detection medium changes to a purple/blue color in the presence of secreted SEAP, which can be detected by spectrophotometry at 620-655 nm. Data was fitted with non-linear regression analysis, using a log(inhibitor) vs. response-variable slope, 3-parameter fit with GraphPad Prism.

pEC50 (human TLR7): 7.33
Compound: CCCCn1nc2c(N)nc3ccccc3c2c1Cc1ccc(CN)cc1 [Compound 1, 1-(4-(aminomethyl)benzyl)-2-butyl-2H-pyrazolo[3,4-c]quinolin-4-amine]
specificity among human and mouse TLRs (human and mouse TLRs): very specific to human and mouse TLR7 and human TLR8
